Earlier results on one molecule are cited in US20150132347A1, “TREATING INFLAMMATORY CONDITIONS AND IMPROVING ORAL HYGIENE USING METAL MODULATORS WITH METHYLSULFONYLMETHANE AS TRANSPORT ENHANCER” (priority 2012, published 2015).

For this series the following is noted: in water @ 79° F.

With `CS(C)(=O)=O` [MSM, methylsulfonylmethane], the water solubility was 34 % w/v.
